In PMC5908784, “Extracellular loops 2 and 3 of the calcitonin receptor selectively modify agonist binding and efficacy” (Biochemical Pharmacology, 2018):
Where a chain is given by its changes, count along the chain named. Where a SMILES comes first, the peptide text is derived from it. Bridges are numbered along the chain shown (N, C = ends).

Assays:
Assay in all cases: cAMP accumulation
Type in all cases: cell-based
[1] = target: T1, hCTR F285A (Homo sapiens, UniProt P30988, F285A); details: mean ± S.E.M.; for Emax: cAMP maximal response, SEM; for EC50: cAMP, CV1-FlpIn cells, 30 min, IBMX
T1 construct: expressed in transfected cells
T1 sequence (P30988 25-474 F285A): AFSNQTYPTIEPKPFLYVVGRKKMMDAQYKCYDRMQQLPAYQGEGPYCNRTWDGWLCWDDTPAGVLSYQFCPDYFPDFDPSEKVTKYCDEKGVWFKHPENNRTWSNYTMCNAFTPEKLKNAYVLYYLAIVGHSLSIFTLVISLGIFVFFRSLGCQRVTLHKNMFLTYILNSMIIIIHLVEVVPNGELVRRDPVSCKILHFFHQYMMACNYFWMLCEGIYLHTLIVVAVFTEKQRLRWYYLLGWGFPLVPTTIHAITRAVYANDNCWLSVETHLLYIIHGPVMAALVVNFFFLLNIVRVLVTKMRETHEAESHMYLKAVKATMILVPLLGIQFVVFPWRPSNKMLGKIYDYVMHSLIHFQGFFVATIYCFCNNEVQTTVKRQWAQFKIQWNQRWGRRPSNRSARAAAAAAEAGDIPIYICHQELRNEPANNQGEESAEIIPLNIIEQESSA
Protocol: (§1) Cells (2.5 × 10^4 cells/well) were seeded into 96-well plates and incubated overnight. Cells were stimulated with increasing concentrations of ligands for 30 min in the presence of IBMX. The liquid was discarded, changed to absolute ethanol and volatilized to dryness at room temperature. […] Data were normalized to the response of 100 μM forskolin.
(§2) Data were corrected for radioligand occupancy using the Cheng-Prusoff equation in Prism; as such data are reported as pKi. Emax and EC50 were estimated from concentration-response curves using with a 3-parameter logistic equation in Prism (v7). These values are a composite of functional affinity, efficacy and stimulus response coupling. […] Significance was accepted at P < 0.05.

[2] = target: T2, hCTR F356A (Homo sapiens, UniProt P30988, F356A); details: mean ± S.E.M.; for Emax: cAMP maximal response, SEM; for EC50: cAMP, CV1-FlpIn cells, 30 min, IBMX
T2 construct: c-Myc (N); expressed in transfected cells
T2 sequence (P30988 25-474 F356A): T1 sequence (P30988 25-474 F285A) with A261F, F332A
Protocol: as §1, §2

[3] = target: T3, hCTR N288A (Homo sapiens, UniProt P30988, N288A); details: mean ± S.E.M.; for Emax: cAMP maximal response, SEM; for EC50: cAMP, CV1-FlpIn cells, 30 min, IBMX
T3 construct: expressed in transfected cells
T3 sequence (P30988 25-474 N288A): T1 sequence (P30988 25-474 F285A) with A261F, N264A
Protocol: as §1, §2

[4] = target: T4, hCTR W361A (Homo sapiens, UniProt P30988, W361A); details: mean ± S.E.M.; for Emax: cAMP maximal response, SEM; for EC50: cAMP, CV1-FlpIn cells, 30 min, IBMX
T4 construct: expressed in transfected cells
T4 sequence (P30988 25-474 W361A): T1 sequence (P30988 25-474 F285A) with A261F, W337A
Protocol: as §1, §2

[5] = target: T5, hCTR C289A (Homo sapiens, UniProt P30988, C289A); details: mean ± S.E.M.; for Emax: cAMP maximal response, SEM
T5 construct: c-Myc (N); expressed in transfected cells
T5 sequence (P30988 25-474 C289A): T1 sequence (P30988 25-474 F285A) with A261F, C265A
Protocol: as §1, §2

| Compound | Emax [1] [%] | EC50 [1] [nM] | Emax [2] [%] | EC50 [2] [nM] | Emax [3] [%] | EC50 [3] [nM] | Emax [4] [%] | EC50 [4] [nM] | Emax [5] [%] | EC50 ([5]; cAMP, CV1-FlpIn cells, 30 min, IBMX) [nM] |
| --- | --- | --- | --- | --- | --- | --- | --- | --- | --- | --- |
| CC(C)C[C@H](NC(=O)CNC(=O)[C@H](C)NC(=O)[C@H](CC(C)C)NC(=O)[C@H](CCCNC(=N)N)NC(=O)[C@H](Cc1cnc[nH]1)NC(=O)[C@@H](NC(=O)[C@@H](NC(=O)[C@@H]1CSSC[C@H](NC(=O)[C@H](C)N)C(=O)N[C@@H](CC(=O)O)C(=O)N[C@@H]([C@@H](C)O)C(=O)N[C@@H](C)C(=O)N[C@@H]([C@@H](C)O)C(=O)N1)C(C)C)[C@@H](C)O)C(=O)N[C@@H](CC(C)C)C(=O)N[C@@H](CO)C(=O)N[C@@H](CCCNC(=N)N)C(=O)N[C@@H](CO)C(=O)NCC(=O)NCC(=O)N[C@H](C(=O)N[C@H](C(=O)N[C@@H](CCCCN)C(=O)N[C@@H](CC(N)=O)C(=O)N[C@@H](CC(N)=O)C(=O)N[C@@H](Cc1ccccc1)C(=O)N[C@H](C(=O)N1CCC[C@H]1C(=O)N[C@H](C(=O)N[C@@H](CC(N)=O)C(=O)N[C@H](C(=O)NCC(=O)N[C@@H](CO)C(=O)N[C@@H](CCCCN)C(=O)N[C@@H](C)C(=O)N[C@@H](Cc1ccccc1)C(N)=O)C(C)C)[C@@H](C)O)C(C)C)C(C)C)C(C)C [hαCGRP] | 122 ± 18 | 15.8 | 128 ± 10 | 66.1 | 118 ± 17 | 10.2 | 102 ± 16 | 97.7 |  |  |
| CC[C@H](C)[C@H](NC(=O)[C@H](C)NC(=O)[C@@H](NC(=O)[C@H](CCC(N)=O)NC(=O)[C@@H]1CCCN1C(=O)[C@H](Cc1ccccc1)NC(=O)[C@@H](NC(=O)[C@H](Cc1c[nH]cn1)NC(=O)[C@H](Cc1ccccc1)NC(=O)[C@H](CCCCN)NC(=O)[C@H](CC(N)=O)NC(=O)[C@H](Cc1ccccc1)NC(=O)[C@H](CC(=O)O)NC(=O)[C@H](CCC(N)=O)NC(=O)[C@@H](NC(=O)[C@H](Cc1ccc(O)cc1)NC(=O)[C@@H](NC(=O)CNC(=O)[C@H](CC(C)C)NC(=O)[C@H](CCSC)NC(=O)[C@@H]1CSSC[C@H](N)C(=O)NCC(=O)N[C@@H](CC(N)=O)C(=O)N[C@@H](CC(C)C)C(=O)N[C@@H](CO)C(=O)N[C@@H]([C@@H](C)O)C(=O)N1)[C@@H](C)O)[C@@H](C)O)[C@@H](C)O)[C@@H](C)O)C(=O)NCC(=O)N[C@H](C(=O)NCC(=O)N[C@@H](C)C(=O)N1CCC[C@H]1C(N)=O)C(C)C [hCT] | 105 ± 11 |  | 131 ± 8 |  | 117 ± 10 |  | 132 ± 9 |  | 148 ± 7 |  |
| CC(C)C[C@H](NC(=O)[C@H](CC(N)=O)NC(=O)[C@H](CC(N)=O)NC(=O)[C@H](CO)NC(=O)[C@H](CO)NC(=O)[C@H](CCCNC(=N)N)NC(=O)[C@@H](NC(=O)[C@H](CC(C)C)NC(=O)[C@H](Cc1ccccc1)NC(=O)[C@H](CC(N)=O)NC(=O)[C@H](C)NC(=O)[C@H](CC(C)C)NC(=O)[C@H](CCCNC(=N)N)NC(=O)[C@H](CCC(N)=O)NC(=O)[C@@H](NC(=O)[C@H](C)NC(=O)[C@@H]1CSSC[C@H](NC(=O)[C@@H](N)CCCCN)C(=O)N[C@@H](CC(N)=O)C(=O)N[C@@H]([C@@H](C)O)C(=O)N[C@@H](C)C(=O)N[C@@H]([C@@H](C)O)C(=O)N1)[C@@H](C)O)C(C)C)C(=O)NCC(=O)N1CCC[C@H]1C(=O)N[C@H](C(=O)N[C@@H](CC(C)C)C(=O)N1CCC[C@H]1C(=O)N1CCC[C@H]1C(=O)N[C@H](C(=O)N[C@@H](CC(N)=O)C(=O)N[C@H](C(=O)NCC(=O)N[C@@H](CO)C(=O)N[C@@H](CC(N)=O)C(=O)N[C@H](C(=O)N[C@@H](Cc1ccc(O)cc1)C(N)=O)[C@@H](C)O)C(C)C)[C@@H](C)O)C(C)C [rAmy] | 92 ± 9 |  | 126 ± 15 |  | 64 ± 8 |  | 102 ± 13 |  | 89 ± 23 |  |
| CSCC[C@H](NC(=O)CNC(=O)[C@H](CO)NC(=O)[C@H](Cc1ccccc1)NC(=O)[C@H](CCCNC(=N)N)NC(=O)[C@H](Cc1c[nH]cn1)NC(=O)[C@H](Cc1ccccc1)NC(=O)[C@H](CC(N)=O)NC(=O)[C@H](CC(N)=O)NC(=O)[C@H](CC(C)C)NC(=O)[C@H](CC(N)=O)NC(=O)[C@H](CCCNC(=N)N)NC(=O)[C@H](Cc1c[nH]c2ccccc12)NC(=O)[C@H](Cc1ccc(O)cc1)NC(=O)[C@H](C)NC(=O)[C@H](CO)NC(=O)[C@H](CC(C)C)NC(=O)[C@@H](NC(=O)[C@@H]1CSSC[C@H](N)C(=O)N[C@@H](CO)C(=O)N[C@@H](CC(N)=O)C(=O)N[C@@H](CC(C)C)C(=O)N[C@@H](CO)C(=O)N[C@@H]([C@@H](C)O)C(=O)N1)C(C)C)C(=O)NCC(=O)N[C@@H](Cc1ccccc1)C(=O)NCC(=O)N1CCC[C@H]1C(=O)N[C@@H](CCC(=O)O)C(=O)N[C@H](C(=O)N1CCC[C@H]1C(N)=O)[C@@H](C)O [pCT] (H-CSNLSTCVLSAYWRNLNNFHRFSGMGFGPETP-NH2; disulfide 1-7) | 81 ± 10 | 0.0501 | 100 ± 2 | 0.0316 | 105 ± 10 | 0.0631 | 133 ± 9 | 0.148 | 115 ± 7 | 1.02 |
| CC(C)C[C@H](NC(=O)[C@H](CCCCN)NC(=O)CNC(=O)[C@H](CC(C)C)NC(=O)[C@@H](NC(=O)[C@@H]1CSSC[C@H](N)C(=O)N[C@@H](CO)C(=O)N[C@@H](CC(N)=O)C(=O)N[C@@H](CC(C)C)C(=O)N[C@@H](CO)C(=O)N[C@@H]([C@@H](C)O)C(=O)N1)C(C)C)C(=O)N[C@@H](CO)C(=O)N[C@@H](CCC(N)=O)C(=O)N[C@@H](CCC(=O)O)C(=O)N[C@@H](CC(C)C)C(=O)N[C@@H](Cc1c[nH]cn1)C(=O)N[C@@H](CCCCN)C(=O)N[C@@H](CC(C)C)C(=O)N[C@@H](CCC(N)=O)C(=O)N[C@H](C(=O)N[C@@H](Cc1ccc(O)cc1)C(=O)N1CCC[C@H]1C(=O)N[C@@H](CCCNC(=N)N)C(=O)N[C@H](C(=O)N[C@@H](CC(N)=O)C(=O)N[C@H](C(=O)NCC(=O)N[C@@H](CO)C(=O)NCC(=O)N[C@H](C(=O)N1CCC[C@H]1C(N)=O)[C@@H](C)O)[C@@H](C)O)[C@@H](C)O)[C@@H](C)O [sCT] | 105 ± 8 |  | 100 ± 1 |  | 69 ± 5 |  | 126 ± 7 |  | 140 ± 7 |  |
